Data reported in PubChem BioAssay AID1918952 (Molecular Pharmacology Branch, DTP, NCI, 2023).
Several values for one entry are separate records, joined by “and”; a condition that tells them apart may be missing. Equal entries are not always repeated.

Tested on: LG0703-F948-PDC complex spheroid viability
Experiment: Anticancer human tumor LG0703-F948-PDC patient-derived lung adenocarcinoma cell line growth inhibition
Details: for viability, T/C: stronger effect = lower value
Procedure, shortened: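 Complex spheroids of tumor cells with HUVEC and human MSCs, exposed to iadademstat combined with other agents. Each agent tested in half-log steps from near clinical Cmax (else 10 microM top), DMSO ≤0.25%.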

[1] = curve of first compound, second compound 0.1 µM
[2] = curve of first compound, second compound 0.316 µM
[3] = curve of first compound, second compound 1 µM
[4] = curve of first compound, second compound 3.16 µM
[5] = curve of first compound, second compound 10 µM
[6] = second compound 0.1 µM, first compound 0.00949 µM
[7] = second compound 0.1 µM, first compound 0.03 µM
[8] = second compound 0.1 µM, first compound 0.0949 µM
[9] = second compound 0.1 µM, first compound 0.3 µM
[10] = second compound 0.316 µM, first compound 0.00949 µM
[11] = second compound 0.316 µM, first compound 0.03 µM
[12] = second compound 0.316 µM, first compound 0.0949 µM
[13] = second compound 0.316 µM, first compound 0.3 µM
[14] = second compound 1 µM, first compound 0.00949 µM
[15] = second compound 1 µM, first compound 0.03 µM
[16] = second compound 1 µM, first compound 0.0949 µM
[17] = second compound 1 µM, first compound 0.3 µM
[18] = second compound 3.16 µM, first compound 0.00949 µM
[19] = second compound 3.16 µM, first compound 0.03 µM
[20] = second compound 3.16 µM, first compound 0.0949 µM
[21] = second compound 3.16 µM, first compound 0.3 µM
[22] = second compound 10 µM, first compound 0.00949 µM
[23] = second compound 10 µM, first compound 0.03 µM
[24] = second compound 10 µM, first compound 0.0949 µM
[25] = second compound 10 µM, first compound 0.3 µM
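Further: spheroids exposed to agents for seven days before readout.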
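Wherever viability, T/C is given: 100% = DMSO vehicle control wells as normalization base.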

## O=C(c1cc(Cc2n[nH]c(=O)c3ccccc23)ccc1F)N1CCN(C(=O)C2CC2)CC1 + NC1CC1c1ccc(-c2cccc(O)c2)cc1
[1]
  IC50: > 10 µM
[2]
  IC50: > 10 µM
[3]
  IC50: > 10 µM
[4]
  IC50: > 10 µM
[5]
  IC50: > 10 µM
Second compound 0.1 µM, first compound 0.0316 µM
  viability, T/C: 112%
Second compound 0.1 µM, first compound 0.1 µM
  viability, T/C: 121%
Second compound 0.1 µM, first compound 0.316 µM
  viability, T/C: 114%
Second compound 0.1 µM, first compound 1 µM
  viability, T/C: 107%
Second compound 0.1 µM, first compound 3.16 µM
  viability, T/C: 92.6%
Second compound 0.1 µM, first compound 10 µM
  viability, T/C: 98.6%
Second compound 0.316 µM, first compound 0.0316 µM
  viability, T/C: 109%
Second compound 0.316 µM, first compound 0.1 µM
  viability, T/C: 111%
Second compound 0.316 µM, first compound 0.316 µM
  viability, T/C: 124%
Second compound 0.316 µM, first compound 1 µM
  viability, T/C: 99%
Second compound 0.316 µM, first compound 3.16 µM
  viability, T/C: 95.2%
Second compound 0.316 µM, first compound 10 µM
  viability, T/C: 79.5%
Second compound 1 µM, first compound 0.0316 µM
  viability, T/C: 102%
Second compound 1 µM, first compound 0.1 µM
  viability, T/C: 121%
Second compound 1 µM, first compound 0.316 µM
  viability, T/C: 134%
Second compound 1 µM, first compound 1 µM
  viability, T/C: 102%
Second compound 1 µM, first compound 3.16 µM
  viability, T/C: 92.1%
Second compound 1 µM, first compound 10 µM
  viability, T/C: 86%
Second compound 3.16 µM, first compound 0.0316 µM
  viability, T/C: 114%
Second compound 3.16 µM, first compound 0.1 µM
  viability, T/C: 107%
Second compound 3.16 µM, first compound 0.316 µM
  viability, T/C: 122%
Second compound 3.16 µM, first compound 1 µM
  viability, T/C: 102%
Second compound 3.16 µM, first compound 3.16 µM
  viability, T/C: 106%
Second compound 3.16 µM, first compound 10 µM
  viability, T/C: 127%
Second compound 10 µM, first compound 0.0316 µM
  viability, T/C: 111%
Second compound 10 µM, first compound 0.1 µM
  viability, T/C: 94.3%
Second compound 10 µM, first compound 0.316 µM
  viability, T/C: 110%
Second compound 10 µM, first compound 1 µM
  viability, T/C: 107%
Second compound 10 µM, first compound 3.16 µM
  viability, T/C: 106%
Second compound 10 µM, first compound 10 µM
  viability, T/C: 91.8%

## COc1cc(Nc2ncc3c(n2)-c2ccc(Cl)cc2C(c2c(F)cccc2OC)=NC3)ccc1C(=O)O
Compound 0.00316 µM
  viability, T/C: 76.9% and 95.7%
Compound 0.01 µM
  viability, T/C: 79.1% and 75.3%
Compound 0.0316 µM
  viability, T/C: 76.3% and 75.3%
Compound 0.1 µM
  viability, T/C: 67.7% and 64.7%
Compound 0.316 µM
  viability, T/C: 39.2% and 42.6%
Compound 1 µM
  viability, T/C: 5.79% and 5.84%
Curve of compound
  IC50: 0.205 µM and 0.196 µM

## CCc1c2c(nc3ccc(O)cc13)-c1cc3c(c(=O)n1C2)COC(=O)[C@]3(O)CC + NC1CCC(NC2CC2c2ccccc2)CC1
[1]
  IC50: 0.00131 µM
[2]
  IC50: 0.00187 µM
[3]
  IC50: 0.00189 µM
[4]
  IC50: 0.00361 µM
[5]
  IC50: 0.00511 µM
Second compound 0.1 µM, first compound 0.000949 µM
  viability, T/C: 55.8%
Second compound 0.1 µM, first compound 0.003 µM
  viability, T/C: 36.4%
[6]
  viability, T/C: 23.9%
[7]
  viability, T/C: 15%
[8]
  viability, T/C: 8.81%
[9]
  viability, T/C: 4.02%
Second compound 0.316 µM, first compound 0.000949 µM
  viability, T/C: 63.7%
Second compound 0.316 µM, first compound 0.003 µM
  viability, T/C: 40.2%
[10]
  viability, T/C: 24.8%
[11]
  viability, T/C: 15.1%
[12]
  viability, T/C: 7.91%
[13]
  viability, T/C: 3.79%
Second compound 1 µM, first compound 0.000949 µM
  viability, T/C: 62.8%
Second compound 1 µM, first compound 0.003 µM
  viability, T/C: 40.8%
[14]
  viability, T/C: 27.6%
[15]
  viability, T/C: 15.9%
[16]
  viability, T/C: 7.93%
[17]
  viability, T/C: 3.95%
Second compound 3.16 µM, first compound 0.000949 µM
  viability, T/C: 64.8%
Second compound 3.16 µM, first compound 0.003 µM
  viability, T/C: 52.5%
[18]
  viability, T/C: 35.3%
[19]
  viability, T/C: 18.1%
[20]
  viability, T/C: 7.91%
[21]
  viability, T/C: 4.52%
Second compound 10 µM, first compound 0.000949 µM
  viability, T/C: 78.8%
Second compound 10 µM, first compound 0.003 µM
  viability, T/C: 59%
[22]
  viability, T/C: 39.6%
[23]
  viability, T/C: 19.9%
[24]
  viability, T/C: 8.18%
[25]
  viability, T/C: 3.7%

## NS(=O)(=O)OCC1CC(n2ccc3c(NC4CCc5ccccc54)ncnc32)CC1O (centres undefined) + NC1CC1c1ccc(-c2cccc(O)c2)cc1
[1]
  IC50: 0.683 µM
[2]
  IC50: 0.582 µM
[3]
  IC50: 0.559 µM
[4]
  IC50: 0.559 µM
[5]
  IC50: 0.302 µM
[6]
  viability, T/C: 101%
[7]
  viability, T/C: 113%
[8]
  viability, T/C: 104%
[9]
  viability, T/C: 75.2%
Second compound 0.1 µM, first compound 0.949 µM
  viability, T/C: 40.9%
Second compound 0.1 µM, first compound 3 µM
  viability, T/C: 19%
[10]
  viability, T/C: 118%
[11]
  viability, T/C: 104%
[12]
  viability, T/C: 105%
[13]
  viability, T/C: 73.9%
Second compound 0.316 µM, first compound 0.949 µM
  viability, T/C: 31.9%
Second compound 0.316 µM, first compound 3 µM
  viability, T/C: 21.6%
[14]
  viability, T/C: 107%
[15]
  viability, T/C: 117%
[16]
  viability, T/C: 103%
[17]
  viability, T/C: 68%
Second compound 1 µM, first compound 0.949 µM
  viability, T/C: 35.6%
Second compound 1 µM, first compound 3 µM
  viability, T/C: 18.6%
[18]
  viability, T/C: 110%
[19]
  viability, T/C: 105%
[20]
  viability, T/C: 98.4%
[21]
  viability, T/C: 70.4%
Second compound 3.16 µM, first compound 0.949 µM
  viability, T/C: 32.6%
Second compound 3.16 µM, first compound 3 µM
  viability, T/C: 16%
[22]
  viability, T/C: 107%
[23]
  viability, T/C: 104%
[24]
  viability, T/C: 81.2%
[25]
  viability, T/C: 50.8%
Second compound 10 µM, first compound 0.949 µM
  viability, T/C: 23.8%
Second compound 10 µM, first compound 3 µM
  viability, T/C: 12.6%

## O=C(C=Cn1cnc(-c2cc(C(F)(F)F)cc(C(F)(F)F)c2)n1)NNc1cnccn1
Compound 0.00316 µM
  viability, T/C: 53.4% and 53.9%
Compound 0.01 µM
  viability, T/C: 51.9% and 52.1%
Compound 0.0316 µM
  viability, T/C: 43.6% and 42.3%
Compound 0.1 µM
  viability, T/C: 38% and 35.1%
Compound 0.316 µM
  viability, T/C: 35.2% and 29.4%
Compound 1 µM
  viability, T/C: 30.5% and 24.9%
Curve of compound
  IC50: 0.00872 µM and 0.00871 µM
